{"source": "the supplement of paper PMC10307832", "experiment_in_all_cases": "relative viability (nuclei count vs DMSO), 5 days (fraction); higher = more cells survive", "key": {"[1]": {"tested_on": "NCI-H2023", "summary_of_the_method": "(§1)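 Relative viability was taken as the ratio of nuclei in treated wells to nuclei in vehicle wells. Lung cancer cell lines in 1536-well plates received compounds by pin tool one day after seeding, either one drug alone or a fixed anchor-drug dose plus five library-drug doses (not always all listed) in √10 steps. Nuclei were counted on 4× images after 5 days of treatment, and values are medians of duplicate plates.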"}, "[2]": {"tested_on": "NCI-H1792", "summary_of_the_method": "as §1"}, "[3]": {"tested_on": "NCI-H520", "summary_of_the_method": "as §1"}, "[4]": {"tested_on": "NCI-H2087", "summary_of_the_method": "as §1"}, "[5]": {"tested_on": "LCLC-103H", "summary_of_the_method": "as §1"}, "[6]": {"tested_on": "LU99A", "summary_of_the_method": "as §1"}, "[7]": {"tested_on": "COR-L 105", "summary_of_the_method": "as §1"}, "[8]": {"tested_on": "A-427", "summary_of_the_method": "as §1"}, "[9]": {"tested_on": "NCI-H1437", "summary_of_the_method": "as §1"}, "[10]": {"tested_on": "SK-LU-1", "summary_of_the_method": "as §1"}, "[11]": {"tested_on": "ABC-1", "summary_of_the_method": "as §1"}, "[12]": {"tested_on": "201T", "summary_of_the_method": "as §1"}, "[13]": {"tested_on": "NCI-H1666", "summary_of_the_method": "as §1"}, "[14]": {"tested_on": "SW 1573", "summary_of_the_method": "as §1"}, "[15]": {"tested_on": "COR-L23", "summary_of_the_method": "as §1"}, "[16]": {"tested_on": "NCI-H2009", "summary_of_the_method": "as §1"}, "[17]": {"tested_on": "RERF-LC-KJ", "summary_of_the_method": "as §1"}, "[18]": {"tested_on": "PC-14", "summary_of_the_method": "as §1"}, "[19]": {"tested_on": "EPLC-272H", "summary_of_the_method": "as §1"}, "[20]": {"tested_on": "EMC-BAC-2", "summary_of_the_method": "as §1"}, "[21]": {"tested_on": "NCI-H3122", "summary_of_the_method": "as §1"}, "[22]": {"tested_on": "HCC-827", "summary_of_the_method": "as §1"}, "[23]": {"tested_on": "HCC-44", "summary_of_the_method": "as §1"}, "[24]": {"tested_on": "EKVX", "summary_of_the_method": "as §1"}}, "data": [{"molecule": "Nc1cccc2c1CN(C1CCC(=O)NC1=O)C2=O", "note": "(centres undefined) [Lenalidomide] + CS(=O)(=O)N1CCN(Cc2cc3nc(-c4cccc5[nH]ncc45)nc(N4CCOCC4)c3s2)CC1 [Pictilisib] (partner 1 µM)", "values": [{"measurement": "relative viability", "setting": "[1]; first compound 0.253 µM", "result": 0.254}, {"measurement": "relative viability", "setting": "[1]; first compound 0.8 µM", "result": 0.176}, {"measurement": "relative viability", "setting": "[1]; first compound 2.53 µM", "result": 0.268}, {"measurement": "relative viability", "setting": "[1]; first compound 8 µM", "result": 0.187}, {"measurement": "relative viability", "setting": "[2]; first compound 0.253 µM", "result": 0.298}, {"measurement": "relative viability", "setting": "[2]; first compound 0.8 µM", "result": 0.192}, {"measurement": "relative viability", "setting": "[2]; first compound 2.53 µM", "result": 0.264}, {"measurement": "relative viability", "setting": "[2]; first compound 8 µM", "result": 0.184}, {"measurement": "relative viability", "setting": "[3]; first compound 0.253 µM", "result": 0.353}, {"measurement": "relative viability", "setting": "[3]; first compound 0.8 µM", "result": 0.362}, {"measurement": "relative viability", "setting": "[3]; first compound 2.53 µM", "result": 0.293}, {"measurement": "relative viability", "setting": "[3]; first compound 8 µM", "result": 0.259}, {"measurement": "relative viability", "setting": "[4]; first compound 0.253 µM", "result": 0.982}, {"measurement": "relative viability", "setting": "[4]; first compound 0.8 µM", "result": 0.436}, {"measurement": "relative viability", "setting": "[4]; first compound 2.53 µM", "result": 0.972}, {"measurement": "relative viability", "setting": "[4]; first compound 8 µM", "result": 0.732}, {"measurement": "relative viability", "setting": "[5]; first compound 0.253 µM", "result": 0.603}, {"measurement": "relative viability", "setting": "[5]; first compound 0.8 µM", "result": 0.547}, {"measurement": "relative viability", "setting": "[5]; first compound 2.53 µM", "result": 0.621}, {"measurement": "relative viability", "setting": "[5]; first compound 8 µM", "result": 0.556}, {"measurement": "relative viability", "setting": "[6]; first compound 0.253 µM", "result": 0.31}, {"measurement": "relative viability", "setting": "[6]; first compound 0.8 µM", "result": 0.324}, {"measurement": "relative viability", "setting": "[6]; first compound 2.53 µM", "result": 0.371}, {"measurement": "relative viability", "setting": "[6]; first compound 8 µM", "result": 0.238}, {"measurement": "relative viability", "setting": "[7]; first compound 0.253 µM", "result": 0.278}, {"measurement": "relative viability", "setting": "[7]; first compound 0.8 µM", "result": 0.398}, {"measurement": "relative viability", "setting": "[7]; first compound 2.53 µM", "result": 0.554}, {"measurement": "relative viability", "setting": "[7]; first compound 8 µM", "result": 0.363}, {"measurement": "relative viability", "setting": "[8]; first compound 0.253 µM", "result": 0.796}, {"measurement": "relative viability", "setting": "[8]; first compound 2.53 µM", "result": 0.744}, {"measurement": "relative viability", "setting": "[8]; first compound 8 µM", "result": 0.676}, {"measurement": "relative viability", "setting": "[9]; first compound 0.253 µM", "result": 0.547}, {"measurement": "relative viability", "setting": "[9]; first compound 0.8 µM", "result": 0.591}, {"measurement": "relative viability", "setting": "[9]; first compound 2.53 µM", "result": 0.592}, {"measurement": "relative viability", "setting": "[9]; first compound 8 µM", "result": 0.344}, {"measurement": "relative viability", "setting": "[10]; first compound 0.253 µM", "result": 0.602}, {"measurement": "relative viability", "setting": "[10]; first compound 0.8 µM", "result": 0.58}, {"measurement": "relative viability", "setting": "[10]; first compound 2.53 µM", "result": 0.704}, {"measurement": "relative viability", "setting": "[10]; first compound 8 µM", "result": 0.502}, {"measurement": "relative viability", "setting": "[11]; first compound 0.253 µM", "result": 0.724}, {"measurement": "relative viability", "setting": "[11]; first compound 0.8 µM", "result": 0.626}, {"measurement": "relative viability", "setting": "[11]; first compound 2.53 µM", "result": 0.719}, {"measurement": "relative viability", "setting": "[11]; first compound 8 µM", "result": 0.629}, {"measurement": "relative viability", "setting": "[12]; first compound 0.253 µM", "result": 0.72}, {"measurement": "relative viability", "setting": "[12]; first compound 0.8 µM", "result": 0.532}, {"measurement": "relative viability", "setting": "[12]; first compound 2.53 µM", "result": 0.678}, {"measurement": "relative viability", "setting": "[12]; first compound 8 µM", "result": 0.603}, {"measurement": "relative viability", "setting": "[13]; first compound 0.253 µM", "result": 0.471}, {"measurement": "relative viability", "setting": "[13]; first compound 0.8 µM", "result": 0.372}, {"measurement": "relative viability", "setting": "[13]; first compound 2.53 µM", "result": 0.495}, {"measurement": "relative viability", "setting": "[13]; first compound 8 µM", "result": 0.488}, {"measurement": "relative viability", "setting": "[14]; first compound 0.253 µM", "result": 0.518}, {"measurement": "relative viability", "setting": "[14]; first compound 0.8 µM", "result": 0.483}, {"measurement": "relative viability", "setting": "[14]; first compound 2.53 µM", "result": 0.504}, {"measurement": "relative viability", "setting": "[14]; first compound 8 µM", "result": 0.524}, {"measurement": "relative viability", "setting": "[15]; first compound 0.253 µM", "result": 0.778}, {"measurement": "relative viability", "setting": "[15]; first compound 0.8 µM", "result": 0.7}, {"measurement": "relative viability", "setting": "[15]; first compound 2.53 µM", "result": 0.924}, {"measurement": "relative viability", "setting": "[15]; first compound 8 µM", "result": 0.64}, {"measurement": "relative viability", "setting": "[16]; first compound 0.253 µM", "result": 0.852}, {"measurement": "relative viability", "setting": "[16]; first compound 0.8 µM", "result": 1.01}, {"measurement": "relative viability", "setting": "[16]; first compound 2.53 µM", "result": 0.941}, {"measurement": "relative viability", "setting": "[16]; first compound 8 µM", "result": 0.768}, {"measurement": "relative viability", "setting": "[17]; first compound 0.253 µM", "result": 0.494}, {"measurement": "relative viability", "setting": "[17]; first compound 0.8 µM", "result": 0.46}, {"measurement": "relative viability", "setting": "[17]; first compound 2.53 µM", "result": 0.543}, {"measurement": "relative viability", "setting": "[17]; first compound 8 µM", "result": 0.534}, {"measurement": "relative viability", "setting": "[18]; first compound 0.253 µM", "result": 0.691}, {"measurement": "relative viability", "setting": "[18]; first compound 0.8 µM", "result": 0.618}, {"measurement": "relative viability", "setting": "[18]; first compound 2.53 µM", "result": 0.719}, {"measurement": "relative viability", "setting": "[18]; first compound 8 µM", "result": 0.713}, {"measurement": "relative viability", "setting": "[19]; first compound 0.253 µM", "result": 0.325}, {"measurement": "relative viability", "setting": "[19]; first compound 2.53 µM", "result": 0.361}, {"measurement": "relative viability", "setting": "[19]; first compound 8 µM", "result": 0.274}, {"measurement": "relative viability", "setting": "[20]; first compound 0.253 µM", "result": 0.532}, {"measurement": "relative viability", "setting": "[20]; first compound 0.8 µM", "result": 0.474}, {"measurement": "relative viability", "setting": "[20]; first compound 2.53 µM", "result": 0.535}, {"measurement": "relative viability", "setting": "[20]; first compound 8 µM", "result": 0.411}, {"measurement": "relative viability", "setting": "[21]; first compound 0.253 µM", "result": 0.653}, {"measurement": "relative viability", "setting": "[21]; first compound 0.8 µM", "result": 0.733}, {"measurement": "relative viability", "setting": "[21]; first compound 2.53 µM", "result": 0.589}, {"measurement": "relative viability", "setting": "[21]; first compound 8 µM", "result": 0.414}, {"measurement": "relative viability", "setting": "[22]; first compound 0.253 µM", "result": 1.03}, {"measurement": "relative viability", "setting": "[22]; first compound 0.8 µM", "result": 1.11}, {"measurement": "relative viability", "setting": "[22]; first compound 2.53 µM", "result": 0.925}, {"measurement": "relative viability", "setting": "[22]; first compound 8 µM", "result": 0.834}, {"measurement": "relative viability", "setting": "[23]; first compound 0.253 µM", "result": 0.525}, {"measurement": "relative viability", "setting": "[23]; first compound 0.8 µM", "result": 0.409}, {"measurement": "relative viability", "setting": "[23]; first compound 2.53 µM", "result": 0.58}, {"measurement": "relative viability", "setting": "[23]; first compound 8 µM", "result": 0.433}, {"measurement": "relative viability", "setting": "[24]; first compound 0.253 µM", "result": 0.456}, {"measurement": "relative viability", "setting": "[24]; first compound 0.8 µM", "result": 0.39}, {"measurement": "relative viability", "setting": "[24]; first compound 2.53 µM", "result": 0.401}, {"measurement": "relative viability", "setting": "[24]; first compound 8 µM", "result": 0.366}]}]}
